For 19 compounds, IC50 results are on record in patent US20250002470A1, “NITROGEN-CONTAINING COMPOUND, PREPARATION METHOD THEREFOR AND APPLICATION THEREOF” (ZHEJIANG AIXPLORER BIOTECH CO., LTD., priority 2021, published 2025).

In the test the target is T1, NLRP3 (Homo sapiens, UniProt Q96P20).
T1 construct: endogenous in cells; host or cells: THP-1 cells (IFN-γ differentiated, LPS primed, ATP stimulated)
Briefly: IL-1β (interleukin-1β) secretion in IFN-γ-differentiated, LPS/ATP-stimulated THP-1 cells (half inhibition rate of NLRP3). Format: cell-based. The settings on record: IFN-γ 25 ng/mL, LPS 50 ng/mL, ATP 5 mM. The method, then:
Remove THP-1 cells from liquid nitrogen and place in a 37° C. water bath until ice melt. Add the cells to 5 mL of warm cell culture medium and centrifuge at 1,000 rpm for 5 min. Discard the supernatant and resuspend and culture in a new cell culture medium.
THP-1 cells are cultured in the culture medium and passaged every 2-3 days.
2.1.1 Add 100 μL of cell suspension per well to the cell plate and incubate the cell plate in a 37° C., 5% CO2 incubator for 24 hours.
2.2.1 Discard the supernatant of IFN-γ differentiation after differentiation treatment. Add 100 μL of serum-free medium containing LPS (final concentration of 50 ng/mL) to the cell plate. The cell plates were incubated in a 37° C., 5% CO2 incubator for 4 h.
Place the cell plate in an incubator at 37° C. and 5% CO2 for 1 hour.
2.2.3 Add 20 μL of 6×ATP per well according to the plate map (final concentration 5 mM) and incubate the cell plate in a 37° C., 5% CO2 incubator for 1 h. Collect the supernatant (60 μL) and store at −20° C.
The capture antibody mAb Mt175 is diluted to 2 μg/mL with PBS (1:250) and added to the cell plate at 15 μL per well. Keep the plate overnight at 4° C.
2.4.1 Discard the coated antibody and wash 4 times with PBST.
2.4.3 Discard the blocking buffer and wash 4 times with PBST.
2.4.4 Add 25 μL of 2.2.3 collected supernatant sample per well and incubate for 2 h at room temperature.
2.4.5 Discard the samples and wash 4 times with PBST.
2.4.6 Add mAb7P10-biotin (concentration 0.5 ug/mL) to blocking buffer, add 15 μL per well to the cell plate, and incubate for 1 hour at room temperature.
2.4.7 Discard the antibody and wash 4 times with PBST.
2.4.8 Streptavidin-HRP was diluted 1:1000 in blocking buffer, 15 μL per well was added to the cell plate, and incubated for 1 hour at room temperature.
2.4.9 Discard streptavidin-HRP and wash 4 times with PBST.
2.4.10 Add 25 μL of HRP substrate (Surmodics-TMBW-0100-01) per well and incubate the cell plate until a blue product appears.
2.4.11 Add 25 μL of stop solution (Surmodics-LSTP-0100-01) per well, and the blue product turns yellow.
2.4.12 Read the cell plate at 450 nm with a microplate reader.

T1 sequence (Q96P20 whole entry): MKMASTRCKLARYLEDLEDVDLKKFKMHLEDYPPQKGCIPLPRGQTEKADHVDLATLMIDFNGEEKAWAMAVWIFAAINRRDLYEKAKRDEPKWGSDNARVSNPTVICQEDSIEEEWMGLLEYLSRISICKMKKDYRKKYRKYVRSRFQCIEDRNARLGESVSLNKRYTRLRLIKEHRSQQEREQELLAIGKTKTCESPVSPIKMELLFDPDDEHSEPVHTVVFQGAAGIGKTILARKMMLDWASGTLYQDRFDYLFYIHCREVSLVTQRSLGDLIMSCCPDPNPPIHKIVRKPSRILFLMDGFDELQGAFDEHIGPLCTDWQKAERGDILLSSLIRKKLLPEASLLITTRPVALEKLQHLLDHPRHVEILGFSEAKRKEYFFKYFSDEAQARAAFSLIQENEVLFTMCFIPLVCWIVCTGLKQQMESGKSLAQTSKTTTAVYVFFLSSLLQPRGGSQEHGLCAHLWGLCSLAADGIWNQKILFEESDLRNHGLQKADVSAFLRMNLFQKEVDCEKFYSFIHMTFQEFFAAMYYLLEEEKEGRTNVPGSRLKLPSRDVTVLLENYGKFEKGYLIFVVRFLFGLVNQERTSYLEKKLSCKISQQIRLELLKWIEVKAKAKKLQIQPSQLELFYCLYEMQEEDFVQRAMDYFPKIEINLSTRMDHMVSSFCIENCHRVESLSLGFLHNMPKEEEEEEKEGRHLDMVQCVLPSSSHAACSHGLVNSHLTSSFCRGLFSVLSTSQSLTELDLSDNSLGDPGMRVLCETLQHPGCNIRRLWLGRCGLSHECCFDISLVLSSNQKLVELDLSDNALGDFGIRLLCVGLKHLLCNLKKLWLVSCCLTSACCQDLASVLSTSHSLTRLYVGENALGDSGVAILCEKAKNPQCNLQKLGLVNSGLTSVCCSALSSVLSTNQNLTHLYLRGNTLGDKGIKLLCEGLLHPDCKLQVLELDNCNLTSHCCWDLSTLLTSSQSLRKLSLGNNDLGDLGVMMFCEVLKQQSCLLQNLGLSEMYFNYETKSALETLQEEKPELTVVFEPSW

One may read the IC50 as the concentration that inhibits the measured activity by half. Low readings indicate higher potency, high ones lower potency. Consider `Cc1cc(Cl)cc(O)c1-c1cnc(N[C@@H]2CCCN(C)C2)nn1` [Embodiment 11, (R)-5-chloro-3-methyl-2-(3-((1-methylpiperidin-3-yl)amino)-1,2,4-triazin-6-yl)phenol], for which it took 4 nM to reach half-maximal inhibition (IC50).

As for `CN1CCC[C@@H](Nc2nnc(-c3ccc(C(F)(F)F)cc3O)c3c(F)cccc23)C1` [Embodiment 122], inhibition was half-maximal at 2.9 nM (IC50).

Take `Cc1cc(C)c(-c2nnc(N[C@@H]3CCCN(C)C3)nn2)c(O)c1` [Embodiment 26, (R)-3,5-Dimethyl-2-(6-((1-methylpiperidin-3)amino)-1,2,4,5-tetraazin-3)phenol]: 446 nM corresponded to half-maximal inhibition (IC50).

`CN1CCC[C@@H](Nc2ncc(-c3c(O)cc(C(F)(F)F)cc3Cl)nn2)C1` [Embodiment 107] registered a concentration for half-maximal inhibition (IC50) of 29.2 nM.

For `CN1CCC[C@@H](Nc2nnc(-c3ccc(C(F)(F)F)cc3O)c3ccoc23)C1` [Embodiment 18, (R)-2-(7-((1-methylpiperidin-3-yl)amino)furo[2,3-d]pyridazin-4-yl)-5-(trifluoromethyl)phenol], it took 5.7 nM to reach half-maximal inhibition (IC50).

On to `CN1CCC[C@@H](Nc2nnc(-c3ccc(Cl)cc3O)c3cnccc23)C1` [Embodiment 129], for which it took 3.8 nM to reach half-maximal inhibition (IC50).

Regarding `Cc1nc(N[C@@H]2CCCN(C)C2)nnc1-c1ccc(C(F)(F)F)cc1O` [Embodiment 8, (R)-2-(5-methyl-3-((1-methylpiperidin-3-yl)amino)-1,2,4-triazin-6-yl)-5-(trifluoromethyl)phenol], the half-inhibitory concentration (IC50) came out at 1.5 nM.

With `Cc1nc(N[C@@H]2CCCN(C)C2)nnc1-c1ncc(C(F)(F)F)cc1O` [Embodiment 9, (R)-2-(5-methyl-3-((1-methylpiperidin-3-yl)amino)-1,2,4-triazin-6-yl)-5-(trifluoromethyl)pyridin-3-ol], the midpoint of inhibition, the IC50, lay at 67 nM.

With `C[C@]1(O)C[C@@H](Nc2nnc(-c3ccc(C(F)(F)F)cc3O)c3c2CCC3)C1` [Embodiment 82, 2-(4-(((cis)-3-hydroxy-3-methylcyclobutyl)amino)-6,7-dihydro-5H-cyclopenta[d]pyridazin-1-yl)-5-(trifluoromethyl)phenol], inhibition was half-maximal at 47.4 nM (IC50).

The compound `Cc1cc(Cl)cc(O)c1-c1nnc(N[C@@H]2CCCN(C)C2)c2ncccc12` [Embodiment 125] gave a concentration for half-maximal inhibition (IC50) of 9.9 nM.

`CN1CCC[C@@H](Nc2nnc(-c3ccc(C(F)(F)F)cc3O)c3c2C(F)(F)CC3)C1` [Embodiment 112] came in with an IC50 of 2 nM. Compared with the last compound, the IC50 is about 5-fold lower.

Turning to `CN1CCC[C@@H](Nc2nnc(-c3ccc(Cl)cc3O)c3cccnc23)C1` [Embodiment 123], the half-inhibitory concentration (IC50) is 5.47 nM. This IC50 lies about 2.7-fold higher than the previous one.

On to `Cc1cc(C)c(-c2cnc(N[C@@H]3CCCN(C)C3)nn2)c(O)c1` [Embodiment 108], for which the IC50 worked out at 10.9 nM.

In turn, `CN1CCC[C@@H](Nc2nnc(-c3ccc(C(F)(F)F)cc3O)c3[nH]ccc23)C1` [Embodiment 21] displayed an IC50 of 49.4 nM.

For `Cc1nc(N[C@@H]2CCCN(CC(N)=O)C2)nnc1-c1ccc(C(F)(F)F)cc1O` [Embodiment 42, (R)-2-(3-((6-(2-hydroxy-4-(trifluoromethyl)phenyl)-5-methyl-1,2,4-triazin-3-yl)amino)piperidin-1-yl) acetamide], the IC50 was 62.7 nM.

Take `CN1CCC[C@@H](Nc2nnc(-c3ccc(C(F)(F)F)cc3O)c3c2CCO3)C1` [Embodiment 19, (R)-2-(4-((1-methylpiperidin-3-yl)amino)-2,3-dihydrofuro[2,3-d]pyridazin-7-yl)-5-(trifluoromethyl)phenol]: the IC50 was 85.2 nM.

Consider `Cc1cc(C(F)(F)F)cc(O)c1-c1cnc(N[C@@H]2CCCN(C)C2)nn1` [Embodiment 10, (R)-3-methyl-2-(3-((1-methylpiperidin-3-yl)amino)-1,2,4-triazin-6-yl)-5-(trifluoromethyl)phenol], for which the midpoint of inhibition, the IC50, lay at 15.5 nM.

Turning to `Cc1cc(N[C@@H]2CCCN(C)C2)nnc1-c1ncc(C(F)(F)F)cc1O` [Embodiment 12, (R)-2-(4-methyl-6-((1-methylpiperidin-3-yl)amino)pyridazin-3-yl)-5-(trifluoromethyl)pyridin-3-ol], the IC50 amounted to 31.1 nM.

With `Cc1cc(Cl)cc(O)c1-c1nnc(N[C@@H]2CCCN(C)C2)c2ccccc12` [Embodiment 116], the 50% inhibitory concentration (IC50) amounted to 10.6 nM.
